From patent US11491158B2, “N-(substituted-phenyl)-sulfonamide derivatives as kinase inhibitors” (Nerviano Medical Sciences S.R.L., priority 2016, dated 2022)

Target: PERK recombinant enzyme (cytoplasmic domain corresponding to residues 540-1115) (Homo sapiens (Human), UniProt Q9NZJ5)
Test: PERK enzyme assay, Method 1: ADP-Glo Kinase Assay (quantification of ADP formed)
Assay type: biochemical
Conditions: 52 microM ATP, 8 nM PERK, 300 microM elF2alpha peptide substrate, 60 minutes
Description: The biochemical activity of compounds was determined by incubation with PERK recombinant enzyme (cytoplasmic domain corresponding to residues 540-1115) and elF2alpha peptide substrate (Aminoacid sequence: LLSELSRRRIRSINK—SEQ ID Nr: 1; purchased from American Peptide Company, product #341923). This was followed by:
Method 1: Quantification of the ADP Formed from the Kinase Reaction by ADP-Glo™ Kinase Assay (Promega Cat. 9102). Utra Pure ATP was Included into ADP-Glo™ Kinase Assay Kit. […]
After 60 minutes, an equal volume (15 microL) of ADP-Glo™ Reagent was added to each well to terminate the kinase reaction and deplete the remaining ATP. After 40 minutes, 30 microL of Kinase Detection Reagent is added, which simultaneously converts ADP to ATP and allows the newly synthesized ATP to be measured using a coupled luciferase/luciferin reaction. After further 40 minutes luminescence was read by ViewLux Instrument (Perkin Elmer). The data are analyzed by GraphPad Prism software which provides sigmoidal fittings of the curves for IC50 determination using a 4 parameter logistic equation: y=bottom+(top−bottom)/(1+10^((log IC50−x)*slope)) where x is the logarithm of the inhibitor concentration, y is the response; y starts at bottom and goes to top with a sigmoid shape. Method 2: Quantification of the Phosphorylated Product Formed from the Kinase Reaction in Presence of ATP (Aldrich, Cat #A2620-9).

Sequence of PERK recombinant enzyme (cytoplasmic domain corresponding to residues 540-1115) (Q9NZJ5 540-1115): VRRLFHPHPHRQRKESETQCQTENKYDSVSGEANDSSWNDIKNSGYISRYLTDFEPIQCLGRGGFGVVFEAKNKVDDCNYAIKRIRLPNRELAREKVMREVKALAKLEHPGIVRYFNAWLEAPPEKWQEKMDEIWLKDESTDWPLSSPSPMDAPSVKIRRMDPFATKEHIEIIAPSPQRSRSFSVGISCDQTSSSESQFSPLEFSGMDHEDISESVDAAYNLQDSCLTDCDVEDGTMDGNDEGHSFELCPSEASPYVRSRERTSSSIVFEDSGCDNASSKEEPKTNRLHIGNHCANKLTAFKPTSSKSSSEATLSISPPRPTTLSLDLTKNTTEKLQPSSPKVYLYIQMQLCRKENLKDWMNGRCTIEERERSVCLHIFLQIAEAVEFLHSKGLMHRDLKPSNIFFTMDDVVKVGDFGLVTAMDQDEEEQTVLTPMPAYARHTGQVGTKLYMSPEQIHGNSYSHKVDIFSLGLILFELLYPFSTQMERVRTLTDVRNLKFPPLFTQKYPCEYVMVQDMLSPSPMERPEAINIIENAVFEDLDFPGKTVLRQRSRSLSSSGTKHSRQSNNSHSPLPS

With `COc1ccc(S(=O)(=O)Nc2cccc(-c3csc4ccnc(N)c34)c2F)cc1C` [Cmpd 60, N-[3-(4-Amino-thieno[3,2-c]pyridin-3-yl)-2-fluoro-phenyl]-4-methoxy-3-methyl-benzenesulfonamide] as the compound, how does the pIC50 read?
The pIC50 was “C (pIC50 < 6.8)”.
